According to US20090220621A1, “Pharmaceutical compositions of a non-enteric coated proton pump inhibitor with a carbonate salt and bicarbonate salt combination” (priority 2000, published 2009):
“And” between values parts separate entries of the source, which are not always exact repeats. Equal entries are not always repeated.

Columns and labels:
Format in all cases: physicochemical
[1] = Stability of lansoprazole in simulated gastric fluid with and without carbicarb (chromatographic assay); conditions: for % labeled amount of lansoprazole remaining: Sample in water; for % of the drug degraded: at 60 minutes in SGF
Experimental: Lansoprazole degrades in acid and is stable in base. This study was performed to determine 1) how quickly lansoprazole degrades in simulated gastric fluid (SGF); and 2) whether a high pH-buffering agent (carbicarb which is an equimolar mixture of sodium carbonate and sodium bicarbonate) could be used to retard the degradation of lansoprazole in SGF. All the experiments were conducted at room temperature (22° C.±2° C.).
The PPI test sample included lansoprazole (30 mg); mannitol (60 mg), meglumine (30 mg) and sodium hydroxide (3 mg).
Then 5.0 mL 2 N sodium hydroxide solution was added to the 0-minutes beaker with mixing. To each of the 5 remaining beakers, 10.0 mL of 8.4% carbicarb solution was added and stirred to mix. At the appropriate time interval (corresponding to the individual beaker numbers), 5.0 mL 2 N sodium hydroxide solution was added to stop the reaction. A portion of the resulting solution was diluted with pH 10 diluent. 10 μL of the resulting solution was then injected into the chromatographic system for assay.
Granular formulations of lansoprazole, including carbicarb were also made and tested. The stability of the granular formulations was tested according to the procedure of Example 3. The granular formulations of lansoprazole for this example were prepared as follows.
The coherent mass containing lansoprazole, carbicarb, lactose and sucrose solution was prepared as described above, in Example 3. This coherent mass was passed through a 20-mesh screen and the resulting granules were dried at 50° C. for 12 hours. Granules containing 30-mg lansoprazole were transferred to an amber color container along with and an equal weight of flavor granules. 10 ml of water ((HPLC grade, Fisher Scientific, Pittsburgh, Pa.) was added to the container with gentle shaking to reconstitute the suspension. The resulting suspension of lansoprazole was tested for stability in simulated gastric fluid as described earlier in Experiment 3.

[2] = Gas and CO2 generated by neutralization of simulated gastric fluid (Orsat apparatus, standard CO2 assay)
Excerpt: To quantify the gas produced by the neutralization of simulated gastric fluid ([…]) by carbicarb and by sodium bicarbonate in vitro, a standard CO2 assay technique was utilized (see USP 24-NF 19 Beta, The United States Pharmacopeia 2000, p. 306)
(§1) Aqueous solutions to be tested were made up from starting materials sodium carbonate, (anhydrous, available from Mallinckrodt) and sodium bicarbonate (available from Mallinckrodt). An 8.4% sodium bicarbonate solution and an 8.4% carbicarb solution (containing equimolar amounts of sodium bicarbonate and sodium carbonate) were tested as follows.
The specimen gas was generated by reacting either 450 mL simulated gastric fluid (SGF) with 50 mL of the carbicarb solution; or by reacting 45 ml of simulated gastric fluid with 5 ml of sodium bicarbonate solution in a 500 mL Erlenmeyer flask.
To make Simulated Gastric Fluid (SGF) 1 g sodium chloride was transferred to a 500-mL volumetric flask. After adding 1.6 g pepsin, 25 mL 2 N hydrochloric acid was added and swirled to mix. The resultant solution could then be diluted to the appropriate volume with water.
The amount of gas generated in a twenty-minute time period was measured in an Orsat Glass Vapor Absorption Apparatus, by the standard assay technique. Two tests were run for each solution. The volume of CO2 generated was calculated from the difference in the initial volume of gas produced (ml) and the final volume of gas remaining (ml).

[3] = Titration of simulated gastric fluid with acid neutralizer solution (gastric acid neutralizing capacity); conditions: 50 mL SGF
Experimental: To determine and compare the gastric acid neutralizing capacity of sodium bicarbonate solution to carbicarb solution, the following experiment was performed.
as §1
50 mL simulated gastric fluid (SGF, prepared according to the procedure described in Example 1) was pipetted into an Erlenmeyer flask. Four drops of methyl red, then four drops of phenolphthalein were then added to the flask. The pH of solution was monitored with a pH electrode. The solution to be tested was added to a 5-mL buret. The gastric media in the flask was then titrated with the test solution to an endpoint within 0.2 pH units of pH 6.5 (as indicated by the color change and pH reading). Then, titration was resumed, to an endpoint within 0.2 pH units of pH 8.0 (as indicated by the color change and pH reading).

[4] = 450 mL SGF and 50 mL test solution, ten times the 45 mL/5 mL values

SMILES	% labeled amount of lansoprazole remaining ([1]; time in SGF 30 minutes)	% labeled amount of lansoprazole remaining ([1]; time in SGF 45 minutes)	% labeled amount of lansoprazole remaining ([1]; time in SGF 60 minutes)	% of the drug degraded ([1]; constituted with carbicarb solution)	% of the drug degraded ([1]; reconstituted with water)	Volume of CO2 ([2]; 45 mL SGF and 5 mL test solution, initial minus residual gas volume)	Initial Gas Volume [2, 4]	Volume of CO2 [2, 4]	Volume of Acid Neutralizer Solution Required ([3]; pH after adding neutralizer 7.0)	Volume of Acid Neutralizer Solution Required ([3]; pH after adding neutralizer 8.0)	Volume of Acid Neutralizer Solution Required ([3]; pH of simulated gastric fluid after adding neutralizer 1.2)
Cc1c(OCC(F)(F)F)ccnc1C[S+]([O-])c1nc2ccccc2[nH]1 (centres unmarked) [lansoprazole]	4.1%	2.7%	2.0%	3.5%	98%	–	–	–	–	–	–
O=C([O-])O.[Na+] [8.4% sodium bicarbonate solution, sodium bicarbonate]	–	–	–	–	–	2.9 mL and 5.3 mL	930.0 mL and 820.0 mL	29.0 mL and 53.0 mL	5.00 mL	6.20 mL	0 mL
